# Tests used:
# U251 = experiment: NCI-60 anticancer screen (SRB; single dose and five doses); details: Homo sapiens
# K-562 = experiment: as above; details: Homo sapiens
# [1] = test system: 60 human tumor cell lines panel; experiment: NCI-60 anticancer screen, whole panel (means and ranges over the cell lines); assay type: cell-based
# T-47D = experiment: NCI-60 anticancer screen (SRB; single dose and five doses); details: Homo sapiens, T47D
# HOP-92 = experiment: as above; details: Homo sapiens
# SK-MEL-28 = experiment: as above; details: Homo sapiens
# UACC-62 = experiment: as above; details: Homo sapiens
# tubulin = experiment: In vitro tubulin polymerization inhibition assay; assay type: biochemical; details: 4 mg/mL tubulin, 37°C, absorbance at 340 nm
# Experimental: 4.2.2. In Vitro Tubulin Polymerization Inhibition Assay.
# 2p, and the reference drug CD -4) with the microtubule system. Specifically, the in vitro inhibition of tubulin polymerization was evaluated for these compounds. The standard tubulin polymerization reaction was carried out, containing 100 μL of 4 mg/mL tubulin in a buffer solution of 80 mM PIPES (pH 6.9), 0.5 mM EGTA, 2 mM MgCl2, and 1 mM GTP. Polymerization was initiated by incubating the reaction […]
# Under these conditions, polymerization typically reaches a maximum absorbance of […]
# growth, and steady state. In this experimental set up, an absorbance of 0.1 at 340 nm corresponds to approximately 1 mg/mL of polymerized tubulin, meaning that around […]
# 40% of the tubulin is polymerized, allowing for the detection of both enhancers and inhibitors of polymerization. The inhibitory effect of each compound on tubulin polymerization was quantified by determining the IC50 values, which were reported as the mean ± standard deviation from three independent experiments. […]
# [2] = five doses, mean graph midpoint over all cell lines
structure (smiles),measurement,setting,value
"Cc1[nH]c(=S)sc1C(=O)/C=C/c1cccc(Cl)c1 [2e, (E)-3-(3-Chlorophenyl)-1-(4-Methyl-2-Thioxo-2,3-Dihydrothiazol-5-yl)Prop-2-En-1-One]",GI50,U251; U-251,1.91 µM
same,IC50,U251; U-251,3.31 µM
same,activity at 10 µM,"U251; U-251, 48 h, read-out: Growth Percentage",12.1%
same,CC50,"U251; U-251, read-out: LC50",7.24 µM
same,IC (TGI),"U251; U-251, read-out: TGI",3.72 µM
same,GI50,K-562; K562,3.39 µM
same,IC50,K-562; K562,4.27 µM
same,activity at 10 µM,"K-562; K562, 48 h, read-out: Growth Percentage",16.8%
same,CC50,"K-562; K562, read-out: LC50",> 100 µM
same,IC (TGI),"K-562; K562, read-out: TGI",> 100 µM
same,activity at 10 µM,"[1]; Homo sapiens, 48 h, range over the cell lines, dose of 10 μM, read-out: growth percentages against most of the tested cells (lowest to highest)",-26.1 to 98%
same,Log10GI50 _MID,[1]; [2],-5.17 Molar
same,Log10LC50 _MID,[1]; [2],-4.26 Molar
same,Log10TGI _MID,[1]; [2],-4.66 Molar
same,GI50,T-47D,3.39 µM
same,IC50,T-47D,7.94 µM
same,activity at 10 µM,"T-47D; 48 h, read-out: Growth Percentage",4.54%
same,CC50,T-47D; read-out: LC50,> 100 µM
same,IC (TGI),T-47D; read-out: TGI,20.9 µM
same,GI50,HOP-92; HOP-92,3.55 µM
same,IC50,HOP-92; HOP-92,79.4 µM
same,CC50,"HOP-92; HOP-92, read-out: LC50",> 100 µM
same,IC (TGI),"HOP-92; HOP-92, read-out: TGI",30.9 µM
same,GI50,SK-MEL-28; SK-MEL-28,2.14 µM
same,IC50,SK-MEL-28; SK-MEL-28,4.07 µM
same,activity at 10 µM,"SK-MEL-28; SK-MEL-28, 48 h, read-out: Growth Percentage",44.7%
same,CC50,"SK-MEL-28; SK-MEL-28, read-out: LC50",13.5 µM
same,IC (TGI),"SK-MEL-28; SK-MEL-28, read-out: TGI",4.9 µM
same,GI50,UACC-62; UACC-62,2.34 µM
same,IC50,UACC-62; UACC-62,4.17 µM
same,activity at 10 µM,"UACC-62; UACC-62, 48 h, read-out: Growth Percentage",30%
same,IC (TGI),"UACC-62; UACC-62, read-out: TGI",8.71 µM
same,IC50,tubulin,4.93 µM
